Experimental data published in article PMC12655637, “Design, Synthesis, and Mechanistic Study of Novel Ciprofloxacin/Thiazole Chalcone Hybrids as Potential Anticancer Agents” (Pharmaceuticals, 2025).

Assays:
Test in all cases: NCI-60 screening, one-dose (10 µM) and five-dose, SRB
[1] = test system: U251; assay type: cell-based, human; conditions: five-dose, U251
[2] = test system: LOX IMVI; assay type: cell-based, human
[3] = test system: MALME-3M; assay type: cell-based, human
[4] = test system: SK-MEL-2; assay type: cell-based, human
[5] = test system: SK-MEL-28; assay type: cell-based, human
[6] = test system: IGROV1; assay type: cell-based, human
[7] = test system: OVCAR-8; assay type: cell-based, human
[8] = test system: NCI/ADR-RES; assay type: cell-based, human
[9] = test system: CAKI-1; assay type: cell-based
[10] = test system: SN12C; assay type: cell-based, human
[11] = test system: PC-3; assay type: cell-based, human
[12] = test system: MCF7; assay type: cell-based, human
[13] = test system: MDA-MB231/ATCC; assay type: cell-based
[14] = test system: HS 578T; assay type: cell-based, human
[15] = test system: MDA-MB-468; assay type: cell-based, human; conditions: five-dose, MDA-MB-468
Source text: Control cells Test cells FLD
available usually at NCI library.
An aliquot of frozen drug concentrate is […]

[16] = Homo sapiens, five-dose, read-out: LC50 (the source's name)
[17] = Homo sapiens, five-dose, SK-MEL-2
[18] = Homo sapiens, five-dose, SK-MEL-28
[19] = Homo sapiens, IGROV-1, five-dose, IGROV1
[20] = Homo sapiens, five-dose, OVCAR-8
[21] = Homo sapiens, five-dose, CAKI-1

Cc1nc(SCC(=O)N2CCN(c3cc4c(cc3F)c(=O)c(C(=O)O)cn4C3CC3)CC2)sc1C(=O)/C=C/c1cccc(Cl)c1 [Compound 4b, (E)-7-(4-(2-((5-(3-(3-Chlorophenyl)acryloyl)-4-methylthiazol-2-yl)thio)acetyl)piperazin-1-yl)-1-cyclopropyl-6-fluoro-4-oxo-1,4-dihydroquinoline-3-carboxylic Acid]
CC50 ([1]; Homo sapiens, U-251, read-out: LC50 (the source's name)): > 100 µM
TGI [1]: 100.0 µM
activity at 10 µM ([2]; Homo sapiens, 10 μM, Melanoma, read-out: Growth percentage): 36.9%
GI50 ([2]; Homo sapiens, five-dose): 2.4 µM
IC50 ([2]; Homo sapiens, five-dose): 3 µM
CC50 [2, 16]: > 100 µM
TGI ([2]; five-dose): 100.0 µM
Growth percentage ([3]; 10 μM, Melanoma): 143.6%
GI50 ([3]; Homo sapiens, five-dose): > 100 µM
IC50 ([3]; Homo sapiens, five-dose): > 100 µM
CC50 [3, 16]: > 100 µM
TGI ([3]; five-dose): 100.0 µM
activity at 10 µM ([4]; Homo sapiens, 10 μM, SK-MEL-2, Melanoma, read-out: Growth percentage): 60.8%
GI50 [4, 17]: 46.8 µM
IC50 [4, 17]: > 100 µM
CC50 ([4]; Homo sapiens, five-dose, SK-MEL-2, read-out: LC50 (the source's name)): > 100 µM
TGI ([4]; five-dose, SK-MEL-2): 100.0 µM
activity at 10 µM ([5]; Homo sapiens, 10 μM, SK-MEL-28, Melanoma, read-out: Growth percentage): 84.1%
GI50 [5, 18]: 26.9 µM
IC50 [5, 18]: 87.1 µM
CC50 ([5]; Homo sapiens, five-dose, SK-MEL-28, read-out: LC50 (the source's name)): > 100 µM
TGI ([5]; five-dose, SK-MEL-28): 100.0 µM
Growth percentage ([6]; 10 μM, IGROV1, Ovarian Cancer): 73.9%
GI50 [6, 19]: > 100 µM
IC50 [6, 19]: > 100 µM
CC50 ([6]; Homo sapiens, IGROV-1, five-dose, IGROV1, read-out: LC50 (the source's name)): > 100 µM
TGI ([6]; five-dose, IGROV1): 100.0 µM
activity at 10 µM ([7]; Homo sapiens, 10 μM, OVCAR-8, Ovarian Cancer, read-out: Growth percentage): 46.1%
GI50 [7, 20]: > 100 µM
IC50 [7, 20]: > 100 µM
CC50 ([7]; Homo sapiens, five-dose, OVCAR-8, read-out: LC50 (the source's name)): > 100 µM
TGI ([7]; five-dose, OVCAR-8): 100.0 µM
activity at 10 µM ([8]; Homo sapiens, 10 μM, Ovarian Cancer, read-out: Growth percentage): 112%
GI50 ([8]; Homo sapiens, five-dose): > 100 µM
IC50 ([8]; Homo sapiens, five-dose): > 100 µM
CC50 [8, 16]: > 100 µM
TGI ([8]; five-dose): 100.0 µM
activity at 10 µM ([9]; Homo sapiens, 10 μM, CAKI-1, Renal Cancer, read-out: Growth percentage): 102%
GI50 [9, 21]: 87.1 µM
IC50 [9, 21]: > 100 µM
CC50 ([9]; Homo sapiens, five-dose, CAKI-1, read-out: LC50 (the source's name)): > 100 µM
TGI ([9]; five-dose, CAKI-1): 100.0 µM
activity at 10 µM ([10]; Homo sapiens, 10 μM, Renal Cancer, read-out: Growth percentage): 51%
GI50 ([10]; Homo sapiens, five-dose): 44.7 µM
IC50 ([10]; Homo sapiens, five-dose): > 100 µM
CC50 [10, 16]: > 100 µM
TGI ([10]; five-dose): 100.0 µM
activity at 10 µM ([11]; Homo sapiens, 10 μM, PC-3, Prostate Cancer, read-out: Growth percentage): 74.1%
GI50 ([11]; Homo sapiens, five-dose, PC-3): 55 µM
IC50 ([11]; Homo sapiens, five-dose, PC-3): > 100 µM
CC50 ([11]; Homo sapiens, five-dose, PC-3, read-out: LC50 (the source's name)): > 100 µM
TGI ([11]; five-dose, PC-3): 100.0 µM
activity at 10 µM ([12]; Homo sapiens, MCF7, 10 μM, MCF7, Breast Cancer, read-out: Growth percentage): 6.5%
GI50 ([12]; Homo sapiens, five-dose, MCF7): 0.4 µM
IC50 ([12]; Homo sapiens, five-dose, MCF7): 0.6 µM
CC50 ([12]; Homo sapiens, five-dose, MCF7, read-out: LC50 (the source's name)): > 100 µM
TGI ([12]; five-dose, MCF7): 3.5 µM
GI50 ([13]; Homo sapiens, MDA-MB-231): > 100 µM
IC50 ([13]; Homo sapiens, MDA-MB-231): > 100 µM
CC50 ([13]; Homo sapiens, five-dose, MDA-MB-231/ATCC, read-out: LC50 (the source's name)): > 100 µM
TGI ([13]; five-dose, MDA-MB-231/ATCC): 100.0 µM
activity at 10 µM ([14]; Homo sapiens, 10 μM, Breast Cancer, read-out: Growth percentage): 61.5%
GI50 ([14]; Homo sapiens, five-dose): 18.6 µM
IC50 ([14]; Homo sapiens, five-dose): 70.8 µM
CC50 [14, 16]: > 100 µM
TGI ([14]; five-dose): 75.9 µM
GI50 ([15]; Homo sapiens): 3.9 µM
IC50 ([15]; Homo sapiens): > 100 µM
CC50 ([15]; Homo sapiens, read-out: LC50 (the source's name)): > 100 µM
TGI [15]: 15.5 µM
